Reference: the NIST ThermoML archive (doi:10.1021/acs.jced.6b00772)
± gives the expanded uncertainty stated by the source.

Details: Fluid (supercritical or subcritical phases), isochoric method

O=C(C(F)(F)C(F)(F)F)C(F)(C(F)(F)F)C(F)(F)F [dodecafluoro-2-methylpentan-3-one]
Details | mass density [kg/m3]
333.47 K, 4628.4 kPa | 1526.2 ± 6.1
343.46 K, 3695.1 kPa | 1489 ± 6
353.46 K, 597.1 kPa | 1425.9 ± 5.7
353.46 K, 7818.2 kPa | 1488.3 ± 6
363.45 K, 4019 kPa | 1425.2 ± 5.7
373.46 K, 849.3 kPa | 1348 ± 5.9
373.46 K, 7450.4 kPa | 1424.5 ± 5.7
383.46 K, 3567.3 kPa | 1347.4 ± 5.4
393.47 K, 6308 kPa | 1346.8 ± 5.4
393.5 K, 1730.8 kPa | 1273.5 ± 5.1
403.46 K, 831.5 kPa | 107.8 ± 39
403.46 K, 9056.2 kPa | 1346.1 ± 5.4
403.48 K, 1044.1 kPa | 1195.8 ± 39
403.5 K, 3917.8 kPa | 1272.9 ± 5.1
413.46 K, 1666.3 kPa | 1157.5 ± 6.3
413.48 K, 873.1 kPa | 107.8 ± 11
413.48 K, 2784 kPa | 1195.2 ± 4.8
413.5 K, 6126.2 kPa | 1272.3 ± 5.1
423.47 K, 3219 kPa | 1156.9 ± 4.7
423.49 K, 913.6 kPa | 107.7 ± 5.4
423.49 K, 4554.9 kPa | 1194.6 ± 4.8
423.49 K, 8348.4 kPa | 1271.7 ± 5.1
433.46 K, 1423 kPa | 209.1 ± 7.5
433.47 K, 4799.8 kPa | 1156.4 ± 4.7
433.48 K, 2354.6 kPa | 1044.1 ± 4.3
433.49 K, 953.3 kPa | 107.7 ± 1.8
433.49 K, 1785.7 kPa | 980.1 ± 7.9
433.49 K, 6349 kPa | 1194.1 ± 4.8
443.47 K, 1703.9 kPa | 270.5 ± 5.5
443.48 K, 1517.2 kPa | 209 ± 3.3
443.48 K, 1862.8 kPa | 384.5 ± 7
443.48 K, 1909.2 kPa | 553.6 ± 11
443.48 K, 2368.4 kPa | 932 ± 4.1
443.48 K, 6401.8 kPa | 1155.8 ± 4.6
443.49 K, 991.3 kPa | 107.6 ± 1.6
443.49 K, 1905.5 kPa | 490.7 ± 5.6
443.49 K, 1950.5 kPa | 733.6 ± 23
443.5 K, 1925.1 kPa | 626.4 ± 43
443.5 K, 1983.4 kPa | 797.9 ± 9.4
443.5 K, 2050.5 kPa | 844.7 ± 6.5
443.5 K, 2089.1 kPa | 861.9 ± 5.6
443.5 K, 2696.6 kPa | 979.6 ± 4
443.5 K, 3478.7 kPa | 1043.6 ± 4.2
443.5 K, 8156.2 kPa | 1193.5 ± 4.8
453.48 K, 3187.2 kPa | 931.6 ± 3.9
453.49 K, 1028.2 kPa | 107.6 ± 1.5
453.49 K, 2074 kPa | 384.3 ± 5.6
453.49 K, 2237.3 kPa | 553.3 ± 8.8
453.49 K, 2415.6 kPa | 733.2 ± 6.5
453.49 K, 8016.6 kPa | 1155.3 ± 4.6
453.5 K, 1608.6 kPa | 208.9 ± 2.7
453.5 K, 1836 kPa | 270.4 ± 3.2
453.5 K, 2302.1 kPa | 626.1 ± 8.5
453.5 K, 2679.9 kPa | 844.3 ± 4
453.51 K, 3642.6 kPa | 979.1 ± 4
453.51 K, 4628.3 kPa | 1043.2 ± 4.2
453.52 K, 2543.8 kPa | 797.5 ± 4.8
453.52 K, 2753.3 kPa | 861.5 ± 5.8
453.52 K, 9972.1 kPa | 1192.9 ± 4.8
453.53 K, 2192.7 kPa | 490.4 ± 8.1
463.48 K, 1697.6 kPa | 208.8 ± 1.8
463.49 K, 1963.3 kPa | 270.2 ± 2.7
463.49 K, 5794.1 kPa | 1042.7 ± 4.2
463.5 K, 1065.3 kPa | 107.5 ± 1.4
463.5 K, 2277.3 kPa | 384.1 ± 3.9
463.5 K, 2561.8 kPa | 553 ± 5.7
463.5 K, 2685.7 kPa | 625.8 ± 4.9
463.5 K, 2908.5 kPa | 732.9 ± 4.4
463.5 K, 4032.8 kPa | 931.2 ± 3.8
463.5 K, 9636.7 kPa | 1154.7 ± 4.6
463.51 K, 2470.7 kPa | 490.2 ± 5.4
463.51 K, 3127.9 kPa | 797.1 ± 3.9
463.51 K, 3336.1 kPa | 843.9 ± 3.6
463.52 K, 3442 kPa | 861.1 ± 3.5
463.52 K, 4610 kPa | 978.7 ± 4
473.49 K, 2087.5 kPa | 270.1 ± 2.4
473.49 K, 3412 kPa | 732.5 ± 3.7
473.49 K, 4891.4 kPa | 930.7 ± 3.8
473.5 K, 1102 kPa | 107.5 ± 1.3
473.5 K, 1785 kPa | 208.7 ± 1.7
473.5 K, 2476.2 kPa | 383.9 ± 3.1
473.5 K, 2884.8 kPa | 552.8 ± 4.1
473.5 K, 3074.2 kPa | 625.5 ± 3.7
473.51 K, 2746.7 kPa | 490 ± 3.8
473.51 K, 5591.7 kPa | 978.2 ± 4
473.51 K, 6974.8 kPa | 1042.2 ± 4.2
473.52 K, 4008.9 kPa | 843.5 ± 3.6
473.52 K, 4147 kPa | 860.7 ± 3.6
473.53 K, 3727.6 kPa | 796.7 ± 3.6
483.48 K, 5762.4 kPa | 930.3 ± 3.8
483.49 K, 1870.9 kPa | 208.6 ± 1.5
483.49 K, 2209.8 kPa | 270 ± 2.1
483.49 K, 2672.1 kPa | 383.8 ± 2.7
483.5 K, 3464.6 kPa | 625.2 ± 3.2
483.5 K, 3924.7 kPa | 732.2 ± 3.4
483.5 K, 8161 kPa | 1041.7 ± 4.2
483.51 K, 1138.4 kPa | 107.4 ± 1.2
483.51 K, 3208.9 kPa | 552.5 ± 3.4
483.52 K, 3020.8 kPa | 489.7 ± 3.3
483.52 K, 4336.7 kPa | 796.4 ± 3.4
483.52 K, 4691.3 kPa | 843.1 ± 3.5
483.52 K, 4863.8 kPa | 860.3 ± 3.6
483.52 K, 6584 kPa | 977.8 ± 3.9
493.49 K, 1955 kPa | 208.5 ± 1.4
493.49 K, 2329.9 kPa | 269.9 ± 1.9
493.49 K, 2865 kPa | 383.6 ± 2.4
493.5 K, 3858.2 kPa | 624.9 ± 3
493.5 K, 4442.7 kPa | 731.8 ± 3.2
493.5 K, 6642.5 kPa | 929.8 ± 3.8
493.5 K, 9354.4 kPa | 1041.2 ± 4.2
493.51 K, 1174.7 kPa | 107.4 ± 1.2
493.51 K, 5382.6 kPa | 842.7 ± 3.5
493.52 K, 3532.9 kPa | 552.2 ± 2.9
493.52 K, 4954.4 kPa | 796 ± 3.4
493.52 K, 5589.2 kPa | 859.9 ± 3.5
493.53 K, 7585.3 kPa | 977.3 ± 3.9
493.54 K, 3292.9 kPa | 489.5 ± 2.8
503.49 K, 7526.9 kPa | 929.4 ± 3.8
503.5 K, 2038.9 kPa | 208.4 ± 1.3
503.5 K, 2448.7 kPa | 269.7 ± 1.8
503.51 K, 1210.7 kPa | 107.3 ± 1.1
503.51 K, 3055.8 kPa | 383.4 ± 2.2
503.51 K, 4251.2 kPa | 624.7 ± 2.8
503.52 K, 3562.4 kPa | 489.3 ± 2.6
503.52 K, 4964.5 kPa | 731.5 ± 3.1
503.53 K, 3855.8 kPa | 552 ± 2.7
503.53 K, 5577.4 kPa | 795.6 ± 3.3
503.53 K, 6079.9 kPa | 842.3 ± 3.5
503.53 K, 6319.5 kPa | 859.5 ± 3.5
503.53 K, 8592.1 kPa | 976.8 ± 3.9
513.49 K, 2121.4 kPa | 208.3 ± 1.3
513.49 K, 2565.8 kPa | 269.6 ± 1.7
513.5 K, 1245.5 kPa | 107.3 ± 1.1
513.5 K, 4646.1 kPa | 624.4 ± 2.7
513.5 K, 5488.2 kPa | 731.1 ± 3.1
513.5 K, 8416.4 kPa | 928.9 ± 3.8
513.51 K, 3244.9 kPa | 383.2 ± 2.1
513.52 K, 4177.8 kPa | 551.7 ± 2.6
513.52 K, 6780.4 kPa | 841.9 ± 3.4
513.52 K, 7055 kPa | 859.1 ± 3.5
513.53 K, 3830.9 kPa | 489 ± 2.5
513.53 K, 9599.7 kPa | 976.4 ± 3.9
513.54 K, 6204.5 kPa | 795.2 ± 3.3
523.49 K, 2682.3 kPa | 269.5 ± 1.6
523.49 K, 5040.8 kPa | 624.1 ± 2.7
523.49 K, 9308.2 kPa | 928.5 ± 3.7
523.5 K, 1281.4 kPa | 107.2 ± 1
523.5 K, 2203.4 kPa | 208.2 ± 1.2
523.5 K, 3433 kPa | 383 ± 2
523.52 K, 4099.2 kPa | 488.8 ± 2.3
523.52 K, 6015.2 kPa | 730.8 ± 3
523.53 K, 6832.9 kPa | 794.9 ± 3.3
523.53 K, 7485.5 kPa | 841.5 ± 3.4
523.54 K, 4499.9 kPa | 551.5 ± 2.5
523.54 K, 7793.7 kPa | 858.7 ± 3.5
